In patent US8202882B2, “5-cyanothienopyridines for the treatment of tumours” (Merck Patent Gesellschaft MIT Beschränkter Haftung, priority 2007, dated 2012):
pIC50: −log10 of the molar value.

Target: T1, GST-ALK5 (TGF-beta receptor I kinase) (Homo sapiens, UniProt P36897)
T1 sequence (P36897 34-503): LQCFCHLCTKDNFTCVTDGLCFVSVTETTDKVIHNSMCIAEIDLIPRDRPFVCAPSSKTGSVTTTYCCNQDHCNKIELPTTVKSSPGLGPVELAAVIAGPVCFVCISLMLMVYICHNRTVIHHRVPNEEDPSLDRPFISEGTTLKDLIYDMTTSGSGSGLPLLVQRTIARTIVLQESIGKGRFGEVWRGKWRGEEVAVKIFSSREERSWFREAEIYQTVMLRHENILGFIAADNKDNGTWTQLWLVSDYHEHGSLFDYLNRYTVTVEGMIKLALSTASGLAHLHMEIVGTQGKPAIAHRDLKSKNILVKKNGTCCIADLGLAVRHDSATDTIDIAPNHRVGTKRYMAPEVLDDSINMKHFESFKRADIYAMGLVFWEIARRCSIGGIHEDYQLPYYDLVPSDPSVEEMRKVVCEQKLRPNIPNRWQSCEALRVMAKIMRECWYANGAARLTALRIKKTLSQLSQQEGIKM
Test: In-vitro (enzyme) kinase assay, 384-well flashplate; inhibition of TGF-beta
Assay type: biochemical
Conditions: GST-ALK5 with GST-SMAD2 substrate, 3 mM ATP (33P-ATP), 30° C., 45 min
Method: In-Vitro (Enzyme) Assay for the Determination of the Efficacy of Inhibitors of the Inhibition of TGF-Beta-Promoted Effects Vermittelten Wirkungen
The kinase assay is carried out as 384-well flashplate assay. 31.2 nM of GST-ALK5, 439 nM of GST-SMAD2 and 3 mM of ATP (with 0.3 μCi of ^33P-ATP/well) are incubated in a total volume of 35 μl (20 mM of HEPES, 10 mM of MgCl, 5 mM of MnCl, 1 mM of DTT, 0.1% of BSA, pH 7.4) without or with test substance (5-10 concentrations) at 30° C. for 45 min. The reaction is stopped using 25 μl of 200 mM EDTA solution, filtered with suction at room temperature after 30 min, and the wells are washed with 3 times 100 μl of 0.9% NaCl solution. Radioactivity is measured in the TopCount. The IC50 values are calculated using RS1.

| pIC50 | SMILES |
| --- | --- |
| 6.54 | N#Cc1c(N)nc2sc(C(N)=O)c(N)c2c1-c1nc2ccccc2s1 [Compound A16, 3,6-Diamino-4-benzothiazol-2-y1-5-cyanothieno[2,3-b]pyridine-2-carboxamide] |
| 7.20 | CN1CCN(CCCNc2nc3sc(C(N)=O)c(N)c3c(-c3cc4ccccc4o3)c2C#N)CC1 [Compound A30, 3-amino-4-benzofuran-2-yl-5-cyano-6-[3-(4-methylpiperazin-1-yl)propylamino]thieno[2,3-b]pyridine-2-carboxamide] |
| 6.74 | N#Cc1c(NCC(O)CO)nc2sc(C(N)=O)c(N)c2c1-c1cc2ccccc2o1 (stereo not shown) [Compound A41, 3-Amino-4-benzofuran-2-yl-5-cyano-6-(2,3-dihydroxypropylamino)thieno[2,3-b]pyridine-2-carboxamide] |
| 6.62 | CCS(=O)(=O)N1CCN(c2nc3sc(C(N)=O)c(N)c3c(-c3cc(C)c(C)o3)c2C#N)CC1 [Compound A53, 3-Amino-5-cyano-4-(4,5-dimethylfuran-2-yl)-6-(4-ethanesulfonylpiperazin-1-yl)thieno[2,3-b]pyridine-2-carboxamide] |
